Results as given in ChEMBL document CHEMBL1201862, “PubChem BioAssay data set” (2004).
The source made the active and inactive calls.

Legend:
[1] = molecular target: Mitogen-activated protein kinase kinase kinase kinase 4 (Homo sapiens, UniProt O95819); type: functional
Aurora kinase A = molecular target: T1, Aurora kinase A (Homo sapiens, UniProt O14965); type: functional;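 further: value from the Navigating the Kinome kinase panel profiling, panel entry STK6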
T1 sequence (O14965 whole entry): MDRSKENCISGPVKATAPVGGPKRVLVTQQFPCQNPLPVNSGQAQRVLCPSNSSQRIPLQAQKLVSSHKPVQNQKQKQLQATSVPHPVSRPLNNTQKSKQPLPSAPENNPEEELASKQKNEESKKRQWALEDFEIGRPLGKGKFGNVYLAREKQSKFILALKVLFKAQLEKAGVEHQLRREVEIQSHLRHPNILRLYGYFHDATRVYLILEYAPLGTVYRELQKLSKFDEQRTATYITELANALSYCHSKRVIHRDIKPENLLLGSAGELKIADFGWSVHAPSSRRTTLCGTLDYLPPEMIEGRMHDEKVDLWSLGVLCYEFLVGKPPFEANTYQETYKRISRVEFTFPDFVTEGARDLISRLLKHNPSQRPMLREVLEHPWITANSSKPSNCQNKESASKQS

[2] = molecular target: Tyrosine-protein kinase Fyn (Homo sapiens, UniProt P06241); type: functional
Sequence of Tyrosine-protein kinase Fyn (P06241 whole entry): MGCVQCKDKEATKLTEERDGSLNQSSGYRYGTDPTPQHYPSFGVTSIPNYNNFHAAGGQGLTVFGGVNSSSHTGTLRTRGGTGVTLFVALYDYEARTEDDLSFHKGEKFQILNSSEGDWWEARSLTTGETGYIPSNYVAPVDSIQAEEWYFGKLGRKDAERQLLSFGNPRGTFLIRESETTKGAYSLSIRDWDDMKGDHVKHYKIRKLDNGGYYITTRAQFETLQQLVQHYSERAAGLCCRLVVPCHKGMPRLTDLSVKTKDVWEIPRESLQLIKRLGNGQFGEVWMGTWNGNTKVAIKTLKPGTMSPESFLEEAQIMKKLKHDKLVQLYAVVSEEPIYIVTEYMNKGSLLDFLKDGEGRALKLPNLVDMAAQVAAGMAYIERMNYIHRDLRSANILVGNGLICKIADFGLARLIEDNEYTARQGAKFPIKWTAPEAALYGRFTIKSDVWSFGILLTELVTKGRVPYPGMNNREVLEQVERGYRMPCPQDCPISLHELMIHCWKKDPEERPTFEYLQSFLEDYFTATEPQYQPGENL

[3] = molecular target: Serine/threonine-protein kinase TAO1 (Homo sapiens, UniProt Q7L7X3); type: functional
Sequence of Serine/threonine-protein kinase TAO1 (Q7L7X3 whole entry): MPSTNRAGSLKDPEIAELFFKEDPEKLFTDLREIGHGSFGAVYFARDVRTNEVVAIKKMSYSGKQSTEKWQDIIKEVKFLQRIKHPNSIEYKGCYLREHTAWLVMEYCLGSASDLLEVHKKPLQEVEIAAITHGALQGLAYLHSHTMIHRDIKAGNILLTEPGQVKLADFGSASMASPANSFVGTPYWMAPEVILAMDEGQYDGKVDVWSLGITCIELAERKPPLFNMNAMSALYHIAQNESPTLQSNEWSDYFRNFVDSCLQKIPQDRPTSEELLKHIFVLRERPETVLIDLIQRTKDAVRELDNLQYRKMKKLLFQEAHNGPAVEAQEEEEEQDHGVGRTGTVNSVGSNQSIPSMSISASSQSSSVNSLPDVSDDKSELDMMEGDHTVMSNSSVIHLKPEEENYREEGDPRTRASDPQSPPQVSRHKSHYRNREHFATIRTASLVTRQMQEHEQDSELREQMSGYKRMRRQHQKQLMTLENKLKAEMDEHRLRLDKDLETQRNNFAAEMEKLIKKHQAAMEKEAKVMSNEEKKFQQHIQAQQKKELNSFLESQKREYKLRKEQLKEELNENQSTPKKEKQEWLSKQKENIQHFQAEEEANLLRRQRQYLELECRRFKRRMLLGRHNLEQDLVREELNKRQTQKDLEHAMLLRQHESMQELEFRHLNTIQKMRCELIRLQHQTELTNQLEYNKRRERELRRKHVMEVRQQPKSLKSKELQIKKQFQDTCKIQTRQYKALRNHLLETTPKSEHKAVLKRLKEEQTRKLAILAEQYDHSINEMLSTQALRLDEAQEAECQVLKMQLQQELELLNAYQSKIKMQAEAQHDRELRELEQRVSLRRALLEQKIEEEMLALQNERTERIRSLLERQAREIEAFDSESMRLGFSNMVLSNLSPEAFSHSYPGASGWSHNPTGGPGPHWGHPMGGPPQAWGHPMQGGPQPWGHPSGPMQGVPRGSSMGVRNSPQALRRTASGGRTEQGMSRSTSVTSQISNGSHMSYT

[4] = molecular target: High affinity nerve growth factor receptor (Homo sapiens, UniProt P04629); type: functional;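 further: NTRK1 tested as one member of a kinome-wide profiling panel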
Sequence of High affinity nerve growth factor receptor (P04629 whole entry): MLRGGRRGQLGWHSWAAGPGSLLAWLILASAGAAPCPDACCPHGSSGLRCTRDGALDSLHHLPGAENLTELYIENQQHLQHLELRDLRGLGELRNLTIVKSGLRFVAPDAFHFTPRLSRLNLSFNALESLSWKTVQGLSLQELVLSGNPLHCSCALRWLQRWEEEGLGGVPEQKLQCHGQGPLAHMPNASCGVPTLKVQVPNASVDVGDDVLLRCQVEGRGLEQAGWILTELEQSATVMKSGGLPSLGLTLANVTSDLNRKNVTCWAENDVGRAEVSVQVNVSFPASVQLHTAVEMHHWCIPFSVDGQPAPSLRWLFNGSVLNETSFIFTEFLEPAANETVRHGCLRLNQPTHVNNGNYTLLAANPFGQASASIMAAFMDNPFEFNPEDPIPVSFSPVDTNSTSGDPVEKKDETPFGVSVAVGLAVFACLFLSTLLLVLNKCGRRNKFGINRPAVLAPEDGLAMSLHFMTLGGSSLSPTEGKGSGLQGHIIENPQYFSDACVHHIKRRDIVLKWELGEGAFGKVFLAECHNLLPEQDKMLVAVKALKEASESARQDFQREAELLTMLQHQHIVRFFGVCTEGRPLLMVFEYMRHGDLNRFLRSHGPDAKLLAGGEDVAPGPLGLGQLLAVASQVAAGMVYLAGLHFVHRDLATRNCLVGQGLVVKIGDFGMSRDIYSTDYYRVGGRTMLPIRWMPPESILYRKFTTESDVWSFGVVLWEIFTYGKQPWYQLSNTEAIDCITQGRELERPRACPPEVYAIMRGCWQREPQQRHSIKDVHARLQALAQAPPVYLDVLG

[5] = molecular target: Glycogen synthase kinase-3 alpha (Homo sapiens, UniProt P49840); type: functional;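 further: GSK3A result taken from a broad kinome-wide kinase panel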
Sequence of Glycogen synthase kinase-3 alpha (P49840 whole entry): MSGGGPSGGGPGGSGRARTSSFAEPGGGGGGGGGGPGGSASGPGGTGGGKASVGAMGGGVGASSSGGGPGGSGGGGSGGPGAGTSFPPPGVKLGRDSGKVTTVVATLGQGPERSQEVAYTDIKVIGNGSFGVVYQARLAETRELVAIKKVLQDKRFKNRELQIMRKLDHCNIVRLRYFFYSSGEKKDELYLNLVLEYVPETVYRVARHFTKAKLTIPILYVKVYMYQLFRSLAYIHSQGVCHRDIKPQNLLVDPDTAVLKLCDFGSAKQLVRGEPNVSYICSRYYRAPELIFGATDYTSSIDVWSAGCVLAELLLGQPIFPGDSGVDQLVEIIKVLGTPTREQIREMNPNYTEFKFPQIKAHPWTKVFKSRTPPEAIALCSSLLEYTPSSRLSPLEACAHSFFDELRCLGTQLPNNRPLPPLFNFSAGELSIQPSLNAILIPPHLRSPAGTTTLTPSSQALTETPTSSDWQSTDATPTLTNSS

[6] = molecular target: Proto-oncogene tyrosine-protein kinase receptor Ret (Homo sapiens, UniProt P07949); type: functional;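 further: measured within a kinome-wide profiling panel, RET as the panel member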
Sequence of Proto-oncogene tyrosine-protein kinase receptor Ret (P07949 whole entry): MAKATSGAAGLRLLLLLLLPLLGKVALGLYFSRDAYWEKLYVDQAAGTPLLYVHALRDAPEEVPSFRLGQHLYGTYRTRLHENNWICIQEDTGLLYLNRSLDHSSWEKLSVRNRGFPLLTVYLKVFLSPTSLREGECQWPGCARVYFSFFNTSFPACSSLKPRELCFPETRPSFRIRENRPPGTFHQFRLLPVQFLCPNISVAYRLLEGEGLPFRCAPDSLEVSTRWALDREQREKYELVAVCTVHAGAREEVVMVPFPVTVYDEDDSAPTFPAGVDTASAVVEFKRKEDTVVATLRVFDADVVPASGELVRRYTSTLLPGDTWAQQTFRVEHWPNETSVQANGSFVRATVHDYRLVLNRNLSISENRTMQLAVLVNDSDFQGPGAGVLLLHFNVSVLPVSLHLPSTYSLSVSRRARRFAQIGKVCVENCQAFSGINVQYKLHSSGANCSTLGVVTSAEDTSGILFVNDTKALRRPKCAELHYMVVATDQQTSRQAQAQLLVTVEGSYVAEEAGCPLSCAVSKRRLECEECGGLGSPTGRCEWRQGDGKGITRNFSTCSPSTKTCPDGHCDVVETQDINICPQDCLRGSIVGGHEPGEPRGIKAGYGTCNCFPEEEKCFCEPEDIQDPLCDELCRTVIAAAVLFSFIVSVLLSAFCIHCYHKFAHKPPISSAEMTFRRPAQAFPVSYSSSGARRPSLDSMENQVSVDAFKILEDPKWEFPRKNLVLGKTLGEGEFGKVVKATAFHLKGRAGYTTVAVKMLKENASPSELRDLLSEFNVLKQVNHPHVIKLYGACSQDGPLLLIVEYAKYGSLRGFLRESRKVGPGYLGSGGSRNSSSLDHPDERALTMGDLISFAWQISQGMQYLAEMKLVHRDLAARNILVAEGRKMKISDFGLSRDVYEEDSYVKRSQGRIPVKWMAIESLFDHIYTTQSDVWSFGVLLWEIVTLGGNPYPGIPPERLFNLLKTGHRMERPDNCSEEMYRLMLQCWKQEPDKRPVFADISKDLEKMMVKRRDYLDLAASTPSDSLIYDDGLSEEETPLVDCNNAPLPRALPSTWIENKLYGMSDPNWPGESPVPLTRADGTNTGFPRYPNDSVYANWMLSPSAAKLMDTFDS

[7] = molecular target: Serine/threonine-protein kinase PAK 4 (Homo sapiens, UniProt O96013); type: functional;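 further: value obtained within a kinome profiling panel in which PAK4 was one of the panel members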
Sequence of Serine/threonine-protein kinase PAK 4 (O96013 whole entry): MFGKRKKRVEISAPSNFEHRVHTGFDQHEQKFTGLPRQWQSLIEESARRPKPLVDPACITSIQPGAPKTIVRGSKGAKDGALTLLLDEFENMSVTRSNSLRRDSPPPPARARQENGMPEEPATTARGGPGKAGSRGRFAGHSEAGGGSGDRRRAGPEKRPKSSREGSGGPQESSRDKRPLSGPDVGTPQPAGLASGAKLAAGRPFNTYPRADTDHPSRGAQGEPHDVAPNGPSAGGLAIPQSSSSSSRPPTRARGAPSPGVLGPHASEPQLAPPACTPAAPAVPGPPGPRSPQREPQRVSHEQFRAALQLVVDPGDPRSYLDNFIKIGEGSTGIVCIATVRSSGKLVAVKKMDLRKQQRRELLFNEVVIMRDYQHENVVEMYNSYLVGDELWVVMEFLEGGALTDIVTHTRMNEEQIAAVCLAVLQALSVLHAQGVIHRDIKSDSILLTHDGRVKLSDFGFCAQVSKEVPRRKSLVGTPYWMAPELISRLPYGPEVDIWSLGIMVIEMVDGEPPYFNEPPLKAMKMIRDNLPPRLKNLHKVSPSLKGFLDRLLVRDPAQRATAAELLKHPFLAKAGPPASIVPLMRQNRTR

Protein RecA = molecular target: T2, Protein RecA (Mycobacterium tuberculosis, UniProt P9WHJ3); experiment: Fluorescence Cell-Free Homogeneous Dose Retest to Identify Inhibitors of RecA-Intein Splicing Activity. [Related pubchem assays (depositor defined):AID2097, AID2223, AID489010, AID492950]; type: functional
T2 sequence (P9WHJ3 whole entry): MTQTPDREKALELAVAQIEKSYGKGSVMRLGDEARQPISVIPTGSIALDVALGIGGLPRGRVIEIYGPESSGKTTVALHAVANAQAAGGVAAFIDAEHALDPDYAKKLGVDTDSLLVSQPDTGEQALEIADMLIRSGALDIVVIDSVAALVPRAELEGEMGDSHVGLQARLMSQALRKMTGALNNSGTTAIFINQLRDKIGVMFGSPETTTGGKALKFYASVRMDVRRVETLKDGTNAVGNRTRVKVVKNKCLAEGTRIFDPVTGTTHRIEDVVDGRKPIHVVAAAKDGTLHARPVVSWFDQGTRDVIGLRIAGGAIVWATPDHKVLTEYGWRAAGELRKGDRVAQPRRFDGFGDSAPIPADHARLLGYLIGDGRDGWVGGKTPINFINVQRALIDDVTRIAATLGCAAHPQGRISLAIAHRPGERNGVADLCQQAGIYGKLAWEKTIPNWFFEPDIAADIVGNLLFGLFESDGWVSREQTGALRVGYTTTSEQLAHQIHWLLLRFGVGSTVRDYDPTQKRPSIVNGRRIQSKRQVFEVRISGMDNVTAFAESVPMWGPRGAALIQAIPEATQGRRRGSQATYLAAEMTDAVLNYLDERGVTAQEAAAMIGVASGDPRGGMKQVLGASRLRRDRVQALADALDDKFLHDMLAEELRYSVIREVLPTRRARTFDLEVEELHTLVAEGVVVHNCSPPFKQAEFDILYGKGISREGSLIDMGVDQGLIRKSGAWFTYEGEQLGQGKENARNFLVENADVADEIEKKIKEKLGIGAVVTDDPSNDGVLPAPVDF

[8] = molecular target: T3, Replicative DNA helicase DnaB (Mycobacterium tuberculosis, UniProt P9WMR3); experiment: DnaB intein splicing inhibitors, dose response, biochemical, cell-free fluorescence (AID 449749); type: functional
T3 sequence (P9WMR3 whole entry): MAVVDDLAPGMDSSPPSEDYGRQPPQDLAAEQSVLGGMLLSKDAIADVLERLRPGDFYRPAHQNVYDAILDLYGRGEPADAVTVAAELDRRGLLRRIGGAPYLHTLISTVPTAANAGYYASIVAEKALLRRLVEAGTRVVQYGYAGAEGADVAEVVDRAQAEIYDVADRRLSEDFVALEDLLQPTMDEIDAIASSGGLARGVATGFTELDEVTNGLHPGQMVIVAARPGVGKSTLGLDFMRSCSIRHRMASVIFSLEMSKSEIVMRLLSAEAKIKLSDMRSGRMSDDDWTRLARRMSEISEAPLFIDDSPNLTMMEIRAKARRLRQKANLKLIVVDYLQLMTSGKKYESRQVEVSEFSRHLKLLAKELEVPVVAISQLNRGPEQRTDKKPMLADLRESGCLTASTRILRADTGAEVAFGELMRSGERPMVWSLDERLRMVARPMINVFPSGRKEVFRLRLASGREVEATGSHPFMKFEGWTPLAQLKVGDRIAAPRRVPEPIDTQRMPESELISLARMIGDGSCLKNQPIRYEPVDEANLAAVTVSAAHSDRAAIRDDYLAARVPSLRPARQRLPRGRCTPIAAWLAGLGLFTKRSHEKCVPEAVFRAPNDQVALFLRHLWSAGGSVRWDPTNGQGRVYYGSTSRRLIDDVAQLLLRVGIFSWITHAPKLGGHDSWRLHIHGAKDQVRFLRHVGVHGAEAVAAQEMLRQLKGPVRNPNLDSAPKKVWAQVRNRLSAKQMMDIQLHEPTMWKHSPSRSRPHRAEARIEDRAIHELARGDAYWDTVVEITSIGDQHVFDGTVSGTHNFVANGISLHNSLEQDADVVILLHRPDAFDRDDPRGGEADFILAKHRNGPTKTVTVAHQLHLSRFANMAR

[9] = molecular target: T4, Sentrin-specific protease 8 (Homo sapiens, UniProt Q96LD8); type: functional;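 further: luminescence read-out of SENP8 inhibition, dose-response confirmation following an ultra-high-throughput screen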
T4 sequence (Q96LD8 whole entry): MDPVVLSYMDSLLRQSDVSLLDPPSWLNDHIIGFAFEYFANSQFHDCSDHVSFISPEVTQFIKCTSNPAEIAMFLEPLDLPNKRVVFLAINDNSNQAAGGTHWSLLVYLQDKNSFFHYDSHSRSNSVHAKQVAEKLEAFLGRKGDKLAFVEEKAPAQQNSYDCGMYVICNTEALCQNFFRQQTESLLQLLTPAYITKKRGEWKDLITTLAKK

Streptococcus = experiment: Group A Streptococcus viability loss, dose response, counter-screen for streptokinase expression inhibitor project, luminescence, BacTiterGlo (AID 1915); type: functional, organism-based; conditions: read-out: EC50;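 further: potency for reduction of bacterial viability or growth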

| SMILES | Ki [1] | Ki (Aurora kinase A) | Ki [2] | Ki [3] | Ki [4] | Ki [5] | Ki [6] | Ki [7] | EC50 (Protein RecA) | AC50 [8] | IC50 [9] | EC50 (Streptococcus) |
| --- | --- | --- | --- | --- | --- | --- | --- | --- | --- | --- | --- | --- |
| CCn1c(-c2nonc2N)nc2cncc(C(=O)N3CCC(N)C3)c21 (centres undefined) | > 3.16 µM (inactive) | > 1.58 µM (inactive) | > 6.31 µM (inactive) | > 6.31 µM (inactive) | > 3.16 µM (inactive) | 0.398 µM (active) | > 3.16 µM (inactive) | > 5.01 µM (inactive) |  |  |  |  |
| COC(=O)c1ccccc1NC1=C/C(=N\S(=O)(=O)c2cccs2)c2ccccc2C1=O |  |  |  |  |  |  |  |  | 0.0208 µM (inconclusive) | > 380 µM (inconclusive) | 41.2 µM (active) |  |
| Cc1cc(C)c[n+](C2=C([N-]S(=O)(=O)c3cccs3)C(=O)c3ccccc3C2=O)c1 |  |  |  |  |  |  |  |  |  |  | 33.4 µM (active) | 9.57 µM (active) |
| Cc1[nH]nc2ccc(-c3cncc(OCC(N)Cc4c[nH]c5ccccc45)c3)cc12 (centres undefined) | 0.0501 µM (active) | > 1.58 µM (inactive) | > 0.794 µM (inactive) | > 10 µM (inactive) | > 2.51 µM (inactive) | 0.126 µM (active) | > 1.26 µM (inactive) | 1.58 µM (active) |  |  |  |  |
| CCCCCCCCCCC[N+](C)(C)CC/C=C1/c2ccccc2Sc2ccc(Cl)cc21 |  |  |  |  |  |  |  |  | 10.1 µM (active) | > 380 µM (inactive) |  | 7.23 µM (active) |
